{"source": "patent US20060100431A1", "about": "“Biologically active compounds” (Amura Therapeutics Limited, priority 2002, published 2006)", "type_in_all_cases": "biochemical", "key": {"human cathepsin L": {"molecular_target": "T1, human cathepsin L (Homo sapiens, UniProt P07711)", "T1 construct": "purchased CN Biosciences", "T1 sequence (P07711 114-333)": "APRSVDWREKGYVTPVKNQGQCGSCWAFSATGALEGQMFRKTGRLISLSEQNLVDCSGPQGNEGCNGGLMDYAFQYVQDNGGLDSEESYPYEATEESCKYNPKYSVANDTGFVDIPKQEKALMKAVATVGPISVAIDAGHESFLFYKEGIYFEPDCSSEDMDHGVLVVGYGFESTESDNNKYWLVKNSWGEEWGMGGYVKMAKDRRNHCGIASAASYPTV", "assay": "Cathepsin L peptidase activity assay (Ki)", "conditions": "read-out: Ki, inhibitors of cathepsin L", "experimental": "Unless otherwise stated, all general chemicals and biochemicals were purchased from either the Sigma Chemical Company, Poole, Dorset, U.K or from Fisher Scientific UK, Loughborough, Leicestershire, U.K. Absorbance assays were carried out in flat-bottomed 96-well plates (Spectra; Greiner Bio-One Ltd., Stonehouse, Gloucestershire, U.K.) using a SpectraMax PLUS384 plate reader (Molecular Devices, Crawley, U.K.). Fluorescence high throughput assays were carried out in either 384-well microtitre plates (Corning Costar 3705 plates, Fisher Scientific) or 96-well ‘U’ bottomed Microfluor W1 microtitre plates (Thermo Labsystems, Ashford, Middlesex, U.K.). Fluorescence assays were monitored using a SpectraMax Gemini fluorescence plate reader (Molecular Devices). For substrates employing either a 7-amino-4-methylcoumarin (AMC) or a 7-amino-4-trifluoromethylcoumarin (AFC) fluorophore, assays were monitored at an excitation wavelength of 365 nm and an emission wavelength of 450 nm and the fluorescence plate reader calibrated with AMC. For substrates employing a 3-amino-benzoyl (Abz) fluorophore, assays were monitored at an excitation wavelength of 310 nm and an emission wavelength of 445 nm; the fluorescence plate reader calibrated with 3-amino-benzamide (Fluka). Unless otherwise indicated, all the peptidase substrates were purchased from Bachem UK, St Helens, Merseyside, UK. Substrates utilizing fluorescence resonance energy transfer methodology (i.e. FRET-based substrates) were synthesized at Incenta Limited using published methods (Atherton & Sheppard, Solid Phase Peptide Synthesis, IRL Press, Oxford, U.K, 1989) and employed Abz (2-aminobenzoyl) as the fluorescence donor and 3-nitro-tyrosine [Tyr(NO2)] as the fluorescence quencher (Meldal, M. and Breddam, K., Anal. Biochem, 195, 141-147, 1991). Hydroxyethylpiperazine ethanesulfonate (HEPES), tris-hydroxylmethyl aminomethane (tris) base, bis-tris-propane and all the biological detergents (e.g. CHAPS, zwittergents, etc.) were purchased from CN Biosciences UK, Beeston, Nottinghamshire, U.K. Glycerol was purchased from Amersham Pharmacia Biotech, Little Chalfont, Buckinghamshire, U.K. Stock solutions of substrate or inhibitor were made up to 10 mM in 100% dimethylsulfoxide (DMSO) (Rathburns, Glasgow, U.K.) and diluted as appropriately required. In all cases the DMSO concentration in the assays was maintained at less than 1% (vol./vol.).\nAssay protocols were based on literature precedent (Table 4; Barrett, A. J., Rawlings, N. D. and Woessner, J. F., 1998, Handbook of Proteolytic Enzymes, Academic Press, London and references therein) and modified as required to suit local assay protocols. Enzyme was added as required to initiate the reaction and the activity, as judged by the change in fluorescence upon conversion of substrate to product, was monitored over time. All assays were carried out at 25±1° C.\nBovine cathepsin S, human cathepsin L, human cathepsin H and human cathepsin B were obtained from CN Biosciences. Recombinant human cathepsin S, human cathepsin K and human cathepsin X were obtained from Dr. Boris Turk (Josef Stefan Institute, Ljubljana, Slovenia). Unless otherwise stated, all peptidase activity assays were carried out in 10 mM bis-tris-propane (BTP), pH 6.5 containing 1 mM EDTA, 5 mM 2-mercaptoethanol and 1 mM CaCl2. Human cathepsin H activity assays were carried out in 10 mM BTP pH 6.5, 142 mM NaCl2, 1 mM CaCl2, 1 mM EDTA, 1 mM DTT, 0.035 mM Zwittergent 3-16. Human cathepsin K assays were carried out in 100 mM sodium acetate; pH 5.5 containing 20 mM L-cysteine and 1 mM EDTA (Bossard, M. J., et. al., J. Biol. Chem., 21, 12517-12524, 1996). Human cathepsin X assays were carried out in 100 mM sodium acetate; pH 5.5 containing 20 mM L-cysteine; 0.05% (w/v) Brij 35 and 1 mM EDTA (Santamaria, I., et. al., J. Biol. Chem., 273, 16816-16823, 1998; Klemencic, J, et al., Eur. J. Biochem., 267, 5404-5412, 2000). […]"}, "Wild-type cruzipain": {"molecular_target": "Wild-type cruzipain (Trypanosoma cruzi, UniProt P25779)", "sequence (P25779 whole entry)": "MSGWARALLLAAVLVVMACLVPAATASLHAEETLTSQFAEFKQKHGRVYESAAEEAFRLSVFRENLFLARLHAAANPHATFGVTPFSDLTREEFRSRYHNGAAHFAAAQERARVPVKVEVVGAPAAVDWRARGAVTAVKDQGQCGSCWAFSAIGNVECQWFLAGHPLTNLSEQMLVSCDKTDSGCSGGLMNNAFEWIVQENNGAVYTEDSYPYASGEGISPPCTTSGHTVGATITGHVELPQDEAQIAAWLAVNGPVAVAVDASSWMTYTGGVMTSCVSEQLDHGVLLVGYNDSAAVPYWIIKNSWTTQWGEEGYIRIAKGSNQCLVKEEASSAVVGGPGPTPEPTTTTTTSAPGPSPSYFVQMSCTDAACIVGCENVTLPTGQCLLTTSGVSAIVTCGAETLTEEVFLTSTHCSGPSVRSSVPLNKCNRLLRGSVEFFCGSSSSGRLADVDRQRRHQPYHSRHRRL", "assay": "Trypanosoma cruzi cruzipain peptidase activity assay (Ki)", "conditions": "read-out: Ki, inhibitors of cruzain and cruzipains", "procedure,_shortened": "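Native cruzipain from T. cruzi Dm28 epimastigotes, 2.5 nM, in 100 mM sodium phosphate pH 6.75 with 1 mM EDTA and 10 mM L-cysteine, 25 °C, DMSO <1%. Rates taken from continuous fluorogenic substrate read; Ki by regression assuming reversible pure-competitive inhibition.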"}, "CPB2.8ΔCTE": {"molecular_target": "T2, CPB2.8ΔCTE (Leishmania mexicana, UniProt P36400)", "T2 construct": "Wild-type recombinant CPB without the C-terminal extention (i.e. CPB2.8ΔCTE); Dr. Jeremy Mottram (Wellcome Centre for Molecular Parasitology, University of Glasgow)", "T2 sequence (P36400 126-343, stated change not applied)": "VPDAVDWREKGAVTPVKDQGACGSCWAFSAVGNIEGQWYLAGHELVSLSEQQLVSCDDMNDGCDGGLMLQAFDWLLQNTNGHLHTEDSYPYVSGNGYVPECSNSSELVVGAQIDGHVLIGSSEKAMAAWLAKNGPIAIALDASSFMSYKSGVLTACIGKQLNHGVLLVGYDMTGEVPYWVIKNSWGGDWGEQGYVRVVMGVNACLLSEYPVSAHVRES", "assay": "Leishmania mexicana cysteine protease B (CPB) peptidase activity assay (Ki)", "conditions": "Ki, inhibitors of Leismania mexicana CPB protease", "procedure,_shortened": "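Apparent Ki was derived by regression of activity against inhibitor concentration, assuming pure-competitive reversible binding. Reaction: 0.25 nM CPB lacking the C-terminal extension, pH 5.5 acetate buffer (1 mM EDTA, 200 mM NaCl, 10 mM DTT), 25 °C, followed by continuous substrate fluorescence.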"}}}
{"smiles": "CC[C@H](NC(C)=O)C(=O)N1CC(=O)[C@@H]2[C@H]1CCN2C(=O)[C@H](CC(C)C)NC(=O)c1ccc(N(C)C)cc1", "note": "[Example 204, (3aR,6aS)-N-{(1S)-1-[4-((2S)-2-Acetylamino-butyryl)-6-oxo-hexahydro-pyrrolo[3,2-b]pyrrole-1-carbonyl]-3-methyl-butyl}-4-dimethylamino-benzamide]", "values": [{"measurement": "Ki", "setting": "human cathepsin L", "result": "< 5", "unit": "µM"}, {"measurement": "Ki", "setting": "Wild-type cruzipain", "result": "< 5", "unit": "µM"}, {"measurement": "Ki", "setting": "CPB2.8ΔCTE", "result": "< 5", "unit": "µM"}]}
{"smiles": "CC(C)C[C@H](NC(=O)c1cccc(CN)c1)C(=O)N1CC[C@@H]2[C@H]1C(=O)CN2C(=O)[C@@H](N)c1ccccc1", "note": "[Example 182, (3aR,6aS)-3-Aminomethyl-N-{(1S)-1-[4-((2S)-2-amino-2-phenyl-acetyl)-6-oxo-hexahydro-pyrrolo[3,2-b]pyrrole-1-carbonyl)-3-methyl-butyl}-benzamide]", "values": [{"measurement": "Ki", "setting": "human cathepsin L", "result": "< 5", "unit": "µM"}, {"measurement": "Ki", "setting": "CPB2.8ΔCTE", "result": "< 5", "unit": "µM"}]}
{"smiles": "CC(C)C[C@H](NC(=O)c1ccc(N(C)C)cc1)C(=O)N1CC[C@@H]2[C@H]1C(=O)CN2C(=O)c1cccc(C(F)(F)F)c1", "note": "[Example 68, (3aR,6aS)-4-Dimethylamino-N-{(1S)-3-methyl-1-[6-oxo-4-(3-trifluoromethyl-benzoyl)-hexahydro-pyrrolo[3,2-b]pyrrole-1-carbonyl]-butyl}-benzamide]", "values": [{"measurement": "Ki", "setting": "human cathepsin L", "result": "< 5", "unit": "µM"}, {"measurement": "Ki", "setting": "Wild-type cruzipain", "result": "< 5", "unit": "µM"}, {"measurement": "Ki", "setting": "CPB2.8ΔCTE", "result": "< 5", "unit": "µM"}]}
{"smiles": "CC(=O)N[C@@H](CC(C)C)C(=O)N1CC(=O)[C@@H]2[C@H]1CCN2C(=O)[C@H](CC1CCCCC1)NC(=O)c1ccco1", "note": "[Example 295, (3aR,6aS)-Furan-2-carboxylic acid {(1S)-2-[4-((2S)-2-acetylamino-4-methyl-pentanoyl)-6-oxo-hexahydro-pyrrolo[3,2-b]pyrrole-1-yl]-1-cyclohexylmethyl-2-oxo-ethyl}-amide]", "values": [{"measurement": "Ki", "setting": "human cathepsin L", "result": "< 5", "unit": "µM"}, {"measurement": "Ki", "setting": "Wild-type cruzipain", "result": "< 5", "unit": "µM"}, {"measurement": "Ki", "setting": "CPB2.8ΔCTE", "result": "< 5", "unit": "µM"}]}
{"smiles": "CC(C)C[C@H](NC(=O)c1cccc(CN)c1)C(=O)N1CC[C@@H]2[C@H]1C(=O)CN2C(=O)Cc1ccccc1F", "note": "[Example 178, (3aR,6aS)-3-Aminomethyl-N-((1S)-1-{4-[2-(2-fluoro-phenyl)-acetyl]-6-oxo-hexahydro-pyrrolo[3,2-b]pyrrole-1-carbonyl}-3-methyl-butyl)-benzamide]", "values": [{"measurement": "Ki", "setting": "human cathepsin L", "result": "< 5", "unit": "µM"}, {"measurement": "Ki", "setting": "CPB2.8ΔCTE", "result": "< 5", "unit": "µM"}]}
{"smiles": "O=C(N[C@@H](CC1CCCCC1)C(=O)N1CC[C@@H]2[C@H]1C(=O)CN2C(=O)c1ccccc1)c1ccco1", "note": "[Example 288, (3aR,6aS)-Furan-2-carboxylic acid [(1S)-2-(4-benzoyl-6-oxo-hexahydro-pyrrolo[3,2-b]pyrrole-1-yl)-1-cyclohexylmethyl-2-oxo-ethyl]-amide]", "values": [{"measurement": "Ki", "setting": "human cathepsin L", "result": "< 5", "unit": "µM"}, {"measurement": "Ki", "setting": "Wild-type cruzipain", "result": "< 5", "unit": "µM"}]}
{"smiles": "O=C(N[C@@H](CC1CCCCC1)C(=O)N1CC[C@@H]2[C@H]1C(=O)CN2C(=O)c1ccc2ccccc2c1)c1ccsc1", "note": "[Example 256, (3aR,6aS)-Thiophene-3-carboxylic acid {(1S)-1-cyclohexylmethyl-2-[4-(naphthalene-2-carbonyl)-6-oxo-hexahydro-pyrrolo[3,2-b]pyrrol-1-yl]-2-oxo-ethyl}-amide]", "values": [{"measurement": "Ki", "setting": "human cathepsin L", "result": "< 5", "unit": "µM"}, {"measurement": "Ki", "setting": "Wild-type cruzipain", "result": "< 5", "unit": "µM"}]}
{"smiles": "CC(C)C[C@H](NC(=O)c1ccc(N(C)C)cc1)C(=O)N1CC[C@@H]2[C@H]1C(=O)CN2C(=O)c1ccc(Cl)o1", "note": "[Example 244, (3aR,6aS)-N-{(1S)-1-[4-(5-Chloro-furan-2-carbonyl)-6-oxo-hexahydro-pyrrolo[3,2-b]pyrrole-1-carbonyl]-3-methyl-butyl}-4-dimethylamino-benzamide]", "values": [{"measurement": "Ki", "setting": "human cathepsin L", "result": "< 5", "unit": "µM"}, {"measurement": "Ki", "setting": "Wild-type cruzipain", "result": "< 5", "unit": "µM"}]}
{"smiles": "O=C(N[C@@H](CC1CCCCC1)C(=O)N1CC[C@@H]2[C@H]1C(=O)CN2C(=O)c1ccccc1)c1cccs1", "note": "[Example 287, (3aR,6aS)-Thiophene-2-carboxylic acid [(1S)-2-(4-benzoyl-6-oxo-hexahydro-pyrrolo[3,2-b]pyrrole-1-yl)-1-cyclohexylmethyl-2-oxo-ethyl]-amide]", "values": [{"measurement": "Ki", "setting": "human cathepsin L", "result": "< 5", "unit": "µM"}, {"measurement": "Ki", "setting": "Wild-type cruzipain", "result": "< 5", "unit": "µM"}]}
{"smiles": "CC(C)C[C@H](NC(=O)c1cccc(CN)c1)C(=O)N1CC[C@@H]2[C@H]1C(=O)CN2C(=O)[C@H](N)c1ccccc1", "note": "[Example 181, (3aR,6aS)-3-Aminomethyl-N-{(1S)-1-[4-((2R)-2-amino-2-phenyl-acetyl)-6-oxo-hexahydro-pyrrolo[3,2-b]pyrrole-1-carbonyl]-3-methyl-butyl}-benzamide]", "values": [{"measurement": "Ki", "setting": "human cathepsin L", "result": "< 5", "unit": "µM"}, {"measurement": "Ki", "setting": "CPB2.8ΔCTE", "result": "< 5", "unit": "µM"}]}
{"smiles": "CC(C)C[C@H](NC(=O)c1ccc2ccccc2n1)C(=O)N1CC[C@@H]2[C@H]1C(=O)CN2C(=O)c1cccnc1", "note": "[Example 18, (3aR,6aS)-Quinoline-2-carboxylic acid {(1S)-3-methyl-1-[6-oxo-4-(pyridine-3-carbonyl)-hexahydro-pyrrolo[3,2-b]pyrrole-1-carbonyl]-butyl}-amide]", "values": [{"measurement": "Ki", "setting": "human cathepsin L", "result": "< 5", "unit": "µM"}, {"measurement": "Ki", "setting": "Wild-type cruzipain", "result": "< 5", "unit": "µM"}]}
{"smiles": "NCc1cccc(C(=O)N[C@@H](CSCc2ccccc2)C(=O)N2CC[C@@H]3[C@H]2C(=O)CN3C(=O)c2ccccc2)c1", "note": "[Example 278, (3aR,6aS)-3-Aminomethyl-N-[(1R)-2-(4-benzoyl-6-oxo-hexahydro-pyrrolo[3,2-b]pyrrole-1-yl)-1-benzylsulfanylmethyl-2-oxo-ethyl]-benzamide]", "values": [{"measurement": "Ki", "setting": "human cathepsin L", "result": "< 5", "unit": "µM"}, {"measurement": "Ki", "setting": "CPB2.8ΔCTE", "result": "< 5", "unit": "µM"}]}
{"smiles": "CN(C)c1ccc(C(=O)N[C@@H](Cc2ccc(O)cc2)C(=O)N2CC[C@@H]3[C@H]2C(=O)CN3C(=O)c2ccccc2S(C)(=O)=O)cc1", "note": "[Example 357, (3aR,6aS)-4-Dimethylamino-N-{(1S)-1-(4-hydroxy-benzyl)-2-[4-(2-methanesulfonyl-benzoyl)-6-oxo-hexahydro-pyrrolo[3,2-b]pyrrole-1-yl]-2-oxo-ethyl}-benzamide]", "values": [{"measurement": "Ki", "setting": "human cathepsin L", "result": "< 5", "unit": "µM"}]}
{"smiles": "CC(C)C[C@H](NC(=O)c1cccc(CN)c1)C(=O)N1CC[C@@H]2[C@H]1C(=O)CN2C(=O)Cc1cccc(F)c1", "note": "[Example 179, (3aR,6aS)-3-Aminomethyl-N-((1S)-1-{4-[2-(3-fluoro-phenyl)-acetyl]-6-oxo-hexahydro-pyrrolo[3,2-b]pyrrole-1-carbonyl}-3-methyl-butyl)-benzamide]", "values": [{"measurement": "Ki", "setting": "human cathepsin L", "result": "< 5", "unit": "µM"}, {"measurement": "Ki", "setting": "CPB2.8ΔCTE", "result": "< 5", "unit": "µM"}]}
{"smiles": "CN(C)c1ccc(C(=O)N[C@@H](Cc2ccc(O)cc2)C(=O)N2CC[C@@H]3[C@H]2C(=O)CN3C(=O)c2ccccc2)cc1", "note": "[Example 356, (3aR,6aS)-N-[(1S)-2-(4-Benzoyl-6-oxo-hexahydro-pyrrolo[3,2-b]pyrrol-1-yl)-1-(4-hydroxy-benzyl)-2-oxo-ethyl)-4-dimethylamino-benzamide]", "values": [{"measurement": "Ki", "setting": "human cathepsin L", "result": "< 5", "unit": "µM"}]}
{"smiles": "Cc1ccc(C(=O)N2CC(=O)[C@@H]3[C@H]2CCN3C(=O)[C@H](CC2CCCCC2)NC(=O)c2ccsc2)cc1", "note": "[Example 293, (3aR,6aS)-Thiophene-3-carboxylic acid {(1S)-1-cyclohexylmethyl-2-[4-(4-methyl-benzoyl)-6-oxo-hexahydro-pyrrolo[3,2-b]pyrrol-1-yl]-2-oxo-ethyl}-amide]", "values": [{"measurement": "Ki", "setting": "human cathepsin L", "result": "< 5", "unit": "µM"}]}
